Data on three molecules can be found in US8853236B2, “Formulations containing clopidogrel and sulfoalkyl ether cyclodextrin and methods of use” (Cydex Pharmaceuticals, Inc., priority 2007, dated 2014).

In data set [1] the test system is ADP-induced platelet aggregation. The settings on record: i.v., 0.1-300 mg clopidogrel.
Description: The response was determined as percent of platelet aggregation inhibition following exposure of the subjects' plasma ex-vivo to ADP (5 μM).
Blood samples for determination of ADP-induced platelet aggregation inhibition using the impedance method (see Dyszkiewicz-Korpanty et al. above) were obtained from arm #2 (the arm not used for dosing) at baseline (check-in, Day −1), 15 and 30 minutes, and 2, 5, and 24 hours after dose initiation.
Maximum % platelet inhibition and area under the % platelet inhibition curve was calculated for each individual and summarized by treatment group
For the next data set, the system named is platelet aggregation. The settings on record: subjects who were non-responders to clopidogrel (10-300 mg) perorally.
For data set [2] the following is noted: pH 5.6, 37° C., 0.1M phosphate buffer; cited from earlier work.
The subject of a further data set is phosphodiesterase. The settings on record: cited from earlier work.
A short description of data set [3]: Competitive binding study of clopidogrel bisulfate and aspirin with SAE-CD (Example 22). The conditions noted are these: pH ~5.5. The class given is physicochemical. As to the method: In this example, excess clopidogrel bisulfate was added to solutions containing fixed amounts of SAE-CD and varying amounts of aspirin. FIG. 7 depicts the results of a competitive binding study. […] Thus, in a formulation containing both clopidogrel and aspirin, the formulation may or may not require additional SAE-CD to solubilize both ingredients than would be required to solubilize either component individually.
The competitive binding study was conducted using clopidogrel bisulphate and aspirin (ASA, acetyl salicylic acid). The work was conducted on an auto-titrator such that the pH was maintained at ˜5.5 using sodium hydroxide. The required amount of SBE-β-CD and aspirin was first solubilized in 0.2 μm Millipore filtered water then transferred to the auto-titrator.
After equilibration, the solutions were sampled and analyzed for clopidogrel content.

For data set [4] the following is noted: in vivo; cited from earlier work.
Another data set relates to animals. The settings on record: in animals; cited from earlier work.

A value given as a limit tells only on which side of the number the result lay.

Regarding `COC(=O)[C@H](c1ccccc1Cl)N1CCc2sccc2C1.O=S(=O)(O)O` [clopidogrel bisulfate, methyl (+)-(S)-α-(2-chlorophenyl)-6,7-dihydrothieno[3,2-c]pyridine-5(4H)-acetate sulfate (1:1)], the “time to onset of the therapeutic effect (platelet aggregation inhibition, 5 μM ADP ex vivo)” value in data set [1] was no more than 15 min. Further, the “subjects deemed responders after parenteral administration” value in the data set on platelet aggregation is recorded as 9-25%. Besides, the t90 toward hydrolysis result in data set [2] is “about 52.7 days”. The “inhibition of phosphodiesterase activity” value with phosphodiesterase was “does not inhibit”.
For `CC(=O)Oc1ccccc1C(=O)O` [aspirin, acetyl salicylic acid], the “binding with SAE-CD in a solution containing SAE-CD and clopidogrel salt” value in data set [3] is on record as “binds competitively”.
As to `COC(=O)[C@@H](c1ccccc1Cl)N1CCc2sccc2C1` (single isomer, unassigned) [(R)-enantiomer of clopidogrel], in data set [4], the antithrombotic activity result is given as “devoid of antithrombotic activity”. Also, the convulsions entry in the data set with animals is “can provoke convulsions”.
